Series [1] concerns the target T1, Hepatic sodium/bile acid cotransporter (Rattus norvegicus, UniProt P26435).
T1 sequence (P26435 whole entry): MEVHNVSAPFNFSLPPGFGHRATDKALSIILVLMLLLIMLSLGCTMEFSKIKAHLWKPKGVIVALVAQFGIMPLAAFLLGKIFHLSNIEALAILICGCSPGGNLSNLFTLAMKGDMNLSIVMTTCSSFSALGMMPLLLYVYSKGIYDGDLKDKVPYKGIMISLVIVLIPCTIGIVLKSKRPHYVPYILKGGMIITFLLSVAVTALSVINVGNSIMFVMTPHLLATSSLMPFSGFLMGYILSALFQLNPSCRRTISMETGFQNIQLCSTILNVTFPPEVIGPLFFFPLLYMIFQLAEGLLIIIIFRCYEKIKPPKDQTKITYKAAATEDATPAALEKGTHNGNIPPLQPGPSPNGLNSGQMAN
Nature of the series: TP_TRANSPORTER: Western in vivo, liver of SD rat. Type of series: functional, organism-based, Sprague-Dawley.

Series [2] has as its target T1, Hepatic sodium/bile acid cotransporter. Nature of the series: TP_TRANSPORTER: Northern blot in vivo, liver of SD rat. Type of series: functional, organism-based, Sprague-Dawley.

Activity data for one compound are collected here from ChEMBL document CHEMBL2073977, “Endotoxin downregulates rat hepatic ntcp gene expression via decreased activity of critical transcription factors” (J Clin Invest, 1998).

Turning to `CCCCCCCCCCCCCC(=O)OC(CCCCCCCCCCC)CC(=O)OC1C(NC(=O)CC(CCCCCCCCCCC)OC(=O)CCCCCCCCCCC)C(OC2CC(OC(=O)CC(O)CCCCCCCCCCC)C(NC(=O)CC(O)CCCCCCCCCCC)C(O)O2)OC(CO)C1OP(=O)(O)O` (configuration not stated), the Activity entry in series [1] and in series [2] was “inducer [Decrease]” throughout.
